Bridge positions count the residues as written; N and C are the ends. Peptide text beside a SMILES is read from it.
T1: BTLA/HVEM complex (Homo sapiens, UniProt Q92956)
T1 construct: His; purchased ACROBiosystems (HVEM-His); Novoprotein (BTLA-Fc) #HVM-H52E9; #CD06
T1 sequence (Q92956 39-202 limits assumed): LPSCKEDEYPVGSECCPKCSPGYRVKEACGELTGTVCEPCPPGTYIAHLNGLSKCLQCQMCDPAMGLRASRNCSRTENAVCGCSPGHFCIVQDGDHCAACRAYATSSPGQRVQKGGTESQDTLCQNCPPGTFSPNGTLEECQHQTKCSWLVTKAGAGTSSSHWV

T2: BTLA/HVEM complex (Homo sapiens, UniProt Q92956)
T2 construct: expressed in transfected cells; host or cells: Jurkat JE6.1 NFκB-eGFP reporter cells (HVEM); T cell stimulator cells from mouse thymoma BW5147 (BTLA)
T2 sequence (Q92956 39-283): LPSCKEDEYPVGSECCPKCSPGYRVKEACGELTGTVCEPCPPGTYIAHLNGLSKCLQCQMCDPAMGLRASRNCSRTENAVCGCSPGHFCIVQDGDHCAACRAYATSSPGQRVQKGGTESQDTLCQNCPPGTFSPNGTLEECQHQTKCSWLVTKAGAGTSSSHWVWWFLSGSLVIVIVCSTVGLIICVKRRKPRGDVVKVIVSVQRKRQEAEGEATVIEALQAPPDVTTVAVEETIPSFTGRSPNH

T3: recombinant human HVEM with His tag (human, UniProt Q92956 39-202)
T3 construct: also called HVEM-His; herpesvirus entry mediator; source: bought: ACROBiosystems (#HVM-H52E9)
T3 sequence (looked up): T1 sequence (Q92956 39-202 limits assumed)


Tests used:
[1] = target: T1, BTLA/HVEM complex; experiment: ELISA, inhibition of BTLA/HVEM complex formation; type: biochemical; conditions: peptides 1.5 to 0.375 mg/mL, 24 h, 37 °C; HVEM-His coated; BTLA-Fc 5 μg/mL
Protocol: ELISA tests were performed to check the inhibitory properties of the peptides. HVEM protein was first immobilized in microplates and then the peptides were added in three different concentrations and incubated with HVEM. Unbound peptides were then removed and BTLA-Fc protein was added. For the detection of BTLA-Fc protein, a goat anti-human IgG (H+L)-HRP conjugate and TMB (3,3’,5,5’-tetramethylbenzidine) were applied. As a positive control, anti-HVEM antibodies, which inhibit the BTLA/HVEM complex formation by about 50%, were used (Figure 3A and Figure S3). […] The inhibitory properties of the peptides were also studied for the complex HVEM/LIGHT, using the same procedure and conditions as described above, but with the application of LIGHT protein instead of BTLA protein. A significant increase in inhibitory properties was observed only for the anti-HVEM antibodies (positive control), which inhibited the HVEM/LIGHT binding by about 75% (Figure 3B and Figure S3). None of the tested peptides inhibited the formation of the LIGHT/HVEM complex (Figure 3B).
A 96-well Immunograde plate (Brand, Wertheim, Germany) was coated with 5 μg/mL of recombinant HVEM-His protein in PBS (100 μL/well) and incubated overnight at 4 °C. The plate was washed 5 times (200 μL/well) with PBS-T (5 mM Na2HPO4, 150 mM NaCl with the addition of 0.3 M NaCl and 0.05% Tween-20, pH 7.4) and blocked with 5% BSA in PBS-T for 2 h at 37 °C. The peptides were then titrated in triplicate from 1.5 to 0.375 mg/mL (100 µL/well) in PBS-T and incubated for 24 h at 37 °C. Maximum binding of HVEM to BTLA/LIGHT was determined by adding PBS-T to negative control wells, whereas maximum inhibition was measured by adding anti-HVEM (1 µg/well). The plate was then washed and incubated with recombinant BTLA-Fc/LIGHT-Fc protein at 5 μg/mL in PBS-T (100 μL/well) for 2 h at 37 °C. Goat anti-human IgG (H+L)-HRP conjugate (Bio-Rad, Hercules, CA, USA) antibody was then added (1:3000; 100 μL/well) and incubated for 1 h at 37 °C. Finally, BTLA-Fc/LIGHT-Fc was detected by the addition of 100 μL/well of TMB (Thermo Scientific, Waltham, MA, USA). Absorbance was measured using Infinite M200 Pro (Tecan Life Sciences, Männedorf, Switzerland) at 650 nm and 492 nm. […] ELISA tests were performed at least in triplicate. The data are presented as mean ± standard deviation (SD). The results were analyzed by one-way analysis of variance (ANOVA) followed by Dunnett’s post-hoc test using GraphPad Prism (San Diego, CA, USA).

[2] = target: T2, BTLA/HVEM complex; experiment: Cell-based reporter assay (HVEM-expressing Jurkat NFκB-eGFP reporter cells stimulated with TCS-BTLA); conditions: 1.5 mg/mL; reporter cells pre-incubated 30 min with peptide, then TCS-BTLA 24 h; flow cytometry; three experiments in duplicate
Excerpt: To assess the capacities of the gD peptides to interfere with the BTLA/HVEM complex in a functional in vitro setting, reporter cells (NFκB-eGFP), which are based on the human Jurkat T cell line JE6.1 were transduced to express HVEM [34]. These reporter cells can be stimulated by T cell stimulator cells (TCS) expressing a membrane-bound anti-CD3 antibody fragment, which is able to engage the TCR-CD3 complex and thereby activate the NFκB pathway. In addition, to control TCS, TCS expressing the corresponding co-stimulatory ligand BTLA were generated in order to trigger HVEM in trans on the reporter cells (Figure S4). To validate the HVEM reporter system, control, and HVEM - expressing reporter cells were stimulated with control TCS and TCS expressing BTLA (Figure S4). Engagement of BTLA with HVEM induced high expression of NFκB-eGFP. To determine the inhibitory properties of the gD peptides, HVEM reporter cells were pre-incubated with the indicated peptides at different concentrations, followed by stimulation with control TCS or TCS-BTLA (Figure 4).
Figure 4 The inhibitory function of the peptides in a reporter cell-based assay. HVEM reporter cells were stimulated with TCS expressing BTLA in the absence or presence of the indicated gD peptides at concentrations of 1.5 mg/mL, 750 μg/mL, and 375 μg/mL. Reporter gene expression (NFκB-eGFP), upon stimulation with TCS-BTLA, was normalized to reporter activation after stimulation with TCS control in the presence of the respective peptides. BTLA/HVEM stimulation in the absence of peptides was set to 100% activation. Results are shown for three experiments performed independently in duplicate. Data are depicted as mean with SEM. * indicates statistically significant differences compared to full activation (100%), two-way ANOVA followed by Bonferroni’s post hoc test; p < 0.0001.
For functional assays, HVEM-expressing reporter cells (5 × 10^4 cells/well) were pre-incubated with different concentrations of gD peptides for 30 min in a 96 flat bottom plate. Control TCS or TCS expressing BTLA (2 × 10^4 cells/well) were subsequently added for 24 h at 37 °C with 5% CO2. After 24 h, the cells were harvested and stained with an mCD45.2 antibody to exclude TCS from the reporter cells. Expression of the reporter gene (eGFP) was then measured via flow cytometry. The mean and standard deviation of the gMFI of the viable population of reporter cells (mCD45.2+ stimulator cells were excluded) were determined. Each experiment was performed in duplicate.

[3] = Stability of peptides in cell culture medium (RPMI1640 with 10% FCS), RP-HPLC; type: in vitro ADME; conditions: 37 °C, at least triplicate
Excerpt: A low stability in solution, which could be connected with many different processes such as aggregation, conformation changes, and chemical degradation, including deamidation and isomerization, oxidation, hydrolysis, and racemization, is a major concern for the therapeutic application of peptides. For the presented study, the stability of the peptides in PBS buffer and medium (solutions used in tests described above) was studied and determined using RP-HPLC. The analysis was done by comparing the area under the peaks in a control sample (peptide dissolved in water, time = 0) and a sample after incubation in PBS or medium.
200 µL of medium (RPMI1640 with 10% FCS)/human plasma was added to 50 µL of each peptide (1 mg/mL). The samples were incubated for different times (0, 2, 3, 6, and 24 h) at 37 °C. They were then precipitated by the addition 1 mL of absolute ethanol, incubated on ice for 15 min and centrifuged at 18,000 rpm for 20 min at 4 °C. The supernatants were collected and dried under vacuum. The samples were then resuspended in 120 µL of 0.1% TFA and analyzed by RP-HPLC under the same conditions as described for the determination of the stability of the peptides in PBS. All stability tests were performed at least in triplicate. Blood was obtained from donor volunteers and centrifuged in lithium/heparin tubes. EDTA was used as an anticoagulant.

[4] = target: T4, HVEM protein (Homo sapiens, UniProt Q92956); experiment: Affinity test: peptide on microcolumn with immobilized HVEM, fractions analysed by mass spectrometry; type: binding; conditions: for Interaction with HVEM protein in affinity test: microcolumn with immobilized HVEM, presence in elution fraction by mass spectrometry
T4 construct: His; purchased ACROBiosystems #HVM-H52E9
Protocol: Affinity tests were performed to confirm the interaction of the designed peptides with HVEM protein. The peptide was added to a microcolumn with immobilized HVEM protein, and binding was checked using mass spectrometry, according to a procedure described earlier.
The affinity tests were performed according to the procedure described in our previous paper. The MS spectrums were registered using a MALDI-TOF/TOF autoflex maX (Bruker, Billerica, MA, USA) mass spectrometer.

[5] = target: T3, recombinant human HVEM with His tag; experiment: affinity purification with mass spectrometry; HVEM protein immobilised in a microcolumn; peptide added; supernatant, last wash and elution fractions analysed by MALDI-TOF/TOF MS; procedure of ref. 33; conditions: both partners purified

| Molecule | Inhibitory properties for BTLA/HVEM complex formation (ELISA), in words [1] | Capacity to interfere with BTLA/HVEM complex (reduction of NFκB-eGFP activation), in words [2] | metabolised at 24 h, 0.2 mg/mL ([3]; cell culture medium (RPMI1640 with 10% FCS), 200 µL + 50 µL peptide 1 mg/mL, 24 h, ethanol precipitation, read-out: Degradation in medium after 24 h) [%] | Elution [M+H]+ (signal in elution fraction = binding to immobilized HVEM) ([4]; MALDI-TOF MS of elution fraction, binding confirmed if m/z signal present in elution and none in last wash, '-' = no signal) | Interaction with HVEM protein in affinity test [4] | Stability in medium (and PBS), in words ([3]; up to 24 h) | binding result [5] |
| --- | --- | --- | --- | --- | --- | --- | --- |
| CSCC[C@@H]1NC(=O)[C@H](CC(=O)O)NC(=O)[C@H](CC(C)C)NC(=O)[C@H](CC(C)C)NC(=O)[C@H](CC(=O)O)NC(=O)[C@H](C(C)C)NC(=O)[C@H](C)NC(=O)[C@H](C(C)C)NC(=O)CNC(=O)[C@H](CC(=O)O)NC(=O)[C@@H](NC(=O)CNC(=O)[C@H](CCCCN)NC(=O)[C@H](CO)NC(=O)[C@H](C)NC(=O)[C@H](CCCNC(=N)N)NC(=O)[C@H](CC(C)C)NC(=O)[C@@H]2CCCN2C(=O)[C@H](CCCNC(=N)N)NC(=O)[C@H](CC(=O)O)NC(C)=O)CSSC[C@@H](C(=O)N[C@@H](CC(C)C)C(=O)N[C@H](C(=O)N[C@@H](CC(C)C)C(=O)N[C@@H](CC(=O)O)C(=O)N[C@@H](Cc2ccccc2)C(=O)N[C@@H](C)C(=O)N[C@@H](CCCNC(=N)N)C(N)=O)C(C)C)NC(=O)[C@@H]2CCCN2C(=O)[C@H](CC(N)=O)NC(=O)[C@H](CCCCN)NC(=O)[C@H](CCC(N)=O)NC(=O)[C@H](CCCNC(=N)N)NC(=O)[C@@H]2CCCN2C(=O)[C@H](Cc2ccc(O)cc2)NC(=O)[C@@H]2CCCN2C1=O [gD(1-36)(K10C-T29C)^SCR, reference compound] (Ac-DRPLRASKGCDGVAVDLLDMPYPRQKNPCLVLDFAR-NH2; disulfide 10-29) | no effect | weak blocking effect |  |  |  |  |  |
| CSCC[C@H](NC(=O)[C@H](CCCCN)NC(=O)[C@H](CC(C)C)NC(=O)[C@H](CO)NC(=O)[C@H](C)NC(=O)[C@H](CC(=O)O)NC(=O)[C@@H](NC(=O)[C@H](CC(C)C)NC(=O)[C@H](C)NC(=O)[C@H](Cc1ccc(O)cc1)NC(=O)[C@H](CCCCN)NC(C)=O)C(C)C)C(=O)N[C@@H](C)C(=O)N[C@@H](CC(=O)O)C(=O)N1CCC[C@H]1C(=O)N[C@@H](CC(N)=O)C(=O)N[C@@H](CCCNC(=N)N)C(=O)N[C@@H](Cc1ccccc1)C(=O)N[C@@H](CCCNC(=N)N)C(=O)NCC(=O)N[C@@H](CCCCN)C(=O)N[C@@H](CC(=O)O)C(=O)N[C@@H](CC(C)C)C(=O)N1CCC[C@H]1C(=O)N[C@H](C(=O)N[C@@H](CC(C)C)C(=O)N[C@@H](CC(=O)O)C(=O)N[C@@H](CCC(N)=O)C(=O)N[C@@H](CC(C)C)C(=O)N[C@H](C(=O)N[C@@H](CC(=O)O)C(=O)N1CCC[C@H]1C(=O)N1CCC[C@H]1C(=O)NCC(=O)N[C@H](C(=O)N[C@@H](CCCNC(=N)N)C(=O)N[C@@H](CCCNC(=N)N)C(N)=O)C(C)C)[C@@H](C)O)C(C)C [gD(1-36)] | did not prevent protein interaction | weak blocking effect | ~50 | 4094.88 | binds to HVEM |  |  |
| Ac-ASLKMADPN-NH2 [gD(7-15)] | do not inhibit BTLA/HVEM complex formation | no effect |  |  | do not interact with HVEM protein | almost completely degraded |  |
| Ac-DQLTDPP-NH2 [gD(26-32)] | do not inhibit BTLA/HVEM complex formation | weak blocking effect |  |  | do not interact with HVEM protein |  |  |
| Ac-KYALVDASLKMADPNRFRGKDLPVLDQLTDPPGVRR-NH2 (source: synthetic peptide) [gD(1-36)] |  |  |  |  |  |  | binds |

From paper PMC7700651 (International Journal of Molecular Sciences, 2020)
